# Source: ChEMBL document CHEMBL5154908, “Design, Synthesis, and Biological Characterization of Inhaled p38α/β MAPK Inhibitors for the Treatment of Lung Inflammatory Diseases” (J Med Chem, 2022)
# Test system: not listed separately
# Experiment: Metabolic stability in rat liver microsomes assessed as half life at 1 uM preincubated for 10 mins followed by NADPH addition and measured after 30 mins by LC/MS/MS analysis
# Assay type: ADME, Microsome
# Conditions: time 40 min
row,Structure (SMILES),half-life at 1 µM [min]
1,C[C@H]1CCCCN1c1nnc2ccc(O[C@@H]3CC[C@H](NC(=O)Nc4cc(C(C)(C)C)nn4-c4cccc(OCCN(C)C)c4)c4ccccc43)cn12,20

# Biological target: T1, Mitogen-activated protein kinase 14 (Homo sapiens, UniProt Q16539)
# T1 sequence (Q16539 whole entry): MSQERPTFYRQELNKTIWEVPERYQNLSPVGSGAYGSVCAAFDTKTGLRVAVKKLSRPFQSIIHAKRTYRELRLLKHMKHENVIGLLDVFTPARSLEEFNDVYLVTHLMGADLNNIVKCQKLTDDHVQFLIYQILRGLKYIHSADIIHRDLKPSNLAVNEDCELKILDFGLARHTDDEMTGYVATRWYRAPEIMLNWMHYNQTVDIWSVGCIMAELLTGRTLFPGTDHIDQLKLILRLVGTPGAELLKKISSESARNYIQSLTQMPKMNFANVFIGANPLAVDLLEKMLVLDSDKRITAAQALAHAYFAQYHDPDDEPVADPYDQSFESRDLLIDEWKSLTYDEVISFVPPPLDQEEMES
# Experiment: Inhibition of human recombinant full length GST-tagged p38alpha expressed in Escherichia coli preincubated for 2 hrs followed by ATP addition and measured after 1 hr by Alpha screen assay
# Conditions: not given
row,Structure (SMILES),IC50 [nM]
1,C[C@H]1CCCCN1c1nnc2ccc(O[C@@H]3CC[C@H](NC(=O)Nc4cc(C(C)(C)C)nn4-c4cccc(OCCN(C)C)c4)c4ccccc43)cn12,0.2

# Test system: not listed separately
# Experiment: Inhibition of LPS-stimulated TNFalpha release in human PBMC cells preincubated for 1 hr followed by LPS stimulation and measured after 18 hrs
# Assay type: functional, cell-based
# Conditions: not given
row,Structure (SMILES),IC50 [nM]
1,C[C@H]1CCCCN1c1nnc2ccc(O[C@@H]3CC[C@H](NC(=O)Nc4cc(C(C)(C)C)nn4-c4cccc(OCCN(C)C)c4)c4ccccc43)cn12,1

# Biological target: T1, Mitogen-activated protein kinase 14
# Experiment: Displacement of SKF-86002 from human inactivated p38alpha assessed as dissociation half life incubated for 2 hrs by fluorescence based analysis
# Conditions: not given
row,Structure (SMILES),T1/2 [min]
1,C[C@H]1CCCCN1c1nnc2ccc(O[C@@H]3CC[C@H](NC(=O)Nc4cc(C(C)(C)C)nn4-c4cccc(OCCN(C)C)c4)c4ccccc43)cn12,> 960

# Biological target: Mitogen-activated protein kinase 11 (Homo sapiens, UniProt Q15759)
# Sequence (Q15759 whole entry): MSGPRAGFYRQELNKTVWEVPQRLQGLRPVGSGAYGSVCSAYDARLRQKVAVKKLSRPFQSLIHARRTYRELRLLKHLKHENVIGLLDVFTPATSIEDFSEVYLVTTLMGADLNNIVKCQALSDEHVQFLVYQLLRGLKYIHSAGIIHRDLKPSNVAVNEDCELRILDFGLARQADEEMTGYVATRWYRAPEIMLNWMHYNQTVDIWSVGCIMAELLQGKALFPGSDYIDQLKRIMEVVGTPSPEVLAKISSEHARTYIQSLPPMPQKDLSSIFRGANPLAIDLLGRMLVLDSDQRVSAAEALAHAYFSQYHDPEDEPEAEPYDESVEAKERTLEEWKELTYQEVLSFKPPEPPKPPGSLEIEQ
# Experiment: Inhibition of recombinant human full length His-tagged p38beta expressed in baculovirus expression system preincubated for 2 hrs followed by ATP addition and measured after 1 hr by Alpha screen assay
# Conditions: not given
row,Structure (SMILES),IC50 [nM]
1,C[C@H]1CCCCN1c1nnc2ccc(O[C@@H]3CC[C@H](NC(=O)Nc4cc(C(C)(C)C)nn4-c4cccc(OCCN(C)C)c4)c4ccccc43)cn12,1.3

# Biological target: T2, Mitogen-activated protein kinase 12 (Homo sapiens, UniProt P53778)
# T2 sequence (P53778 whole entry): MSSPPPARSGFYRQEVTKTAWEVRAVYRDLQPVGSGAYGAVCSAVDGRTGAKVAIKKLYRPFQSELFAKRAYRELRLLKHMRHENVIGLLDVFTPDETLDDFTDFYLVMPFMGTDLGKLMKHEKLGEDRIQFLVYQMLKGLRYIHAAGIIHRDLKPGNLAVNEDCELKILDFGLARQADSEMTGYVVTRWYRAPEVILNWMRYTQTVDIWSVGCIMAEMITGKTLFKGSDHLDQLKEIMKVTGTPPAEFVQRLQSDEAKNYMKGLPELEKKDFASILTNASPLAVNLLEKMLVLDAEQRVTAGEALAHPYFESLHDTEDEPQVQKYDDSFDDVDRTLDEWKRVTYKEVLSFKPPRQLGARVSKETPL
# Experiment: Inhibition of recombinant human full length His-tagged p38gamma expressed in baculovirus expression system preincubated for 2 hrs followed by ATP addition and measured after 1 hr by Alpha screen assay
# Conditions: not given
row,Structure (SMILES),IC50 [nM]
1,C[C@H]1CCCCN1c1nnc2ccc(O[C@@H]3CC[C@H](NC(=O)Nc4cc(C(C)(C)C)nn4-c4cccc(OCCN(C)C)c4)c4ccccc43)cn12,2860

# Biological target: T3, Mitogen-activated protein kinase 13 (Homo sapiens, UniProt O15264)
# T3 sequence (O15264 whole entry): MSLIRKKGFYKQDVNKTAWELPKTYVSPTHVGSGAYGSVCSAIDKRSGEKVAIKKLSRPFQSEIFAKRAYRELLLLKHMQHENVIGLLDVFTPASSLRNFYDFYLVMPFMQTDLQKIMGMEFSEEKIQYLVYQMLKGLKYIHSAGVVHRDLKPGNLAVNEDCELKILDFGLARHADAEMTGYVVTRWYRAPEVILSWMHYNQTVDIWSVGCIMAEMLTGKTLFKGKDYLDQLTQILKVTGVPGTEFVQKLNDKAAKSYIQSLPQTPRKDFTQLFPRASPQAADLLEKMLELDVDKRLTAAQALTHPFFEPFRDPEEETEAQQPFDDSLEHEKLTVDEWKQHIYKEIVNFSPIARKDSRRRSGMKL
# Experiment: Inhibition of recombinant human full length His-tagged p38delta expressed in baculovirus expression system preincubated for 2 hrs followed by ATP addition and measured after 1 hr by Alpha screen assay
# Conditions: not given
row,Structure (SMILES),IC50 [nM]
1,C[C@H]1CCCCN1c1nnc2ccc(O[C@@H]3CC[C@H](NC(=O)Nc4cc(C(C)(C)C)nn4-c4cccc(OCCN(C)C)c4)c4ccccc43)cn12,> 10000

# Test system: not listed separately
# Experiment: Solubility of the compound at >=1 mg/ml measured after 30 mins by HPLC analysis
# Assay type: physicochemical
# Conditions: not given
row,Structure (SMILES),solubility at 0.5 h [µg/mL]
1,C[C@H]1CCCCN1c1nnc2ccc(O[C@@H]3CC[C@H](NC(=O)Nc4cc(C(C)(C)C)nn4-c4cccc(OCCN(C)C)c4)c4ccccc43)cn12,100

# Test system: not listed separately
# Experiment: Permeability across apical to basolateral side in human Caco-2 cells at 10 uM measured after 60 mins by LC/MS/MS analysis
# Assay type: ADME, cell-based
# Conditions: read-out: permeability
row,Structure (SMILES),"Papp A→B at 1 h, 10 µM [×10⁻⁶ cm/s]"
1,C[C@H]1CCCCN1c1nnc2ccc(O[C@@H]3CC[C@H](NC(=O)Nc4cc(C(C)(C)C)nn4-c4cccc(OCCN(C)C)c4)c4ccccc43)cn12,1.4

# Test system: not listed separately
# Experiment: Protein binding in rat plasma at 10 uM incubated for 4 hrs by LC/MS/MS analysis
# Assay type: ADME, cell-free
# Conditions: read-out: PPB (converted)
row,Structure (SMILES),"fraction unbound at 4 h, 10 µM"
1,C[C@H]1CCCCN1c1nnc2ccc(O[C@@H]3CC[C@H](NC(=O)Nc4cc(C(C)(C)C)nn4-c4cccc(OCCN(C)C)c4)c4ccccc43)cn12,0.003

# Test system: not listed separately
# Experiment: Protein binding in rat lung homogenate at 10 uM incubated for 4 hrs by LC/MS/MS analysis
# Assay type: ADME, tissue-based
# Conditions: read-out: PB (converted)
row,Structure (SMILES),"fraction unbound at 4 h, 10 µM"
1,C[C@H]1CCCCN1c1nnc2ccc(O[C@@H]3CC[C@H](NC(=O)Nc4cc(C(C)(C)C)nn4-c4cccc(OCCN(C)C)c4)c4ccccc43)cn12,0.001

# Test system: not listed separately
# Experiment: Cmax in Sprague-Dawley rat plasma at 0.03 mg/kg, IT measured after 0.8 hrs by LC/MS/MS analysis
# Assay type: ADME, organism-based
# Set-up: dose 0.03 mg/kg, time 0.8 hrs, route it
# Conditions: not given
row,Structure (SMILES),Cmax [nM]
1,C[C@H]1CCCCN1c1nnc2ccc(O[C@@H]3CC[C@H](NC(=O)Nc4cc(C(C)(C)C)nn4-c4cccc(OCCN(C)C)c4)c4ccccc43)cn12,10

# Test system: not listed separately
# Experiment: Cmax in Sprague-Dawley rat lung homogenate at 0.03 mg/kg, IT measured after 0.8 hrs by LC/MS/MS analysis
# Assay type: ADME, organism-based
# Set-up: time 0.8 hrs, dose 0.03 mg/kg, route it
# Conditions: not given
row,Structure (SMILES),Cmax [nM]
1,C[C@H]1CCCCN1c1nnc2ccc(O[C@@H]3CC[C@H](NC(=O)Nc4cc(C(C)(C)C)nn4-c4cccc(OCCN(C)C)c4)c4ccccc43)cn12,2700

# Test system: not listed separately
# Experiment: Selectivity index, ratio of drug concentration in Sprague-Dawley rat lung homogenate to IC50 for human p38alpha
# Assay type: tissue-based
# Conditions: tissue homogenate
row,Structure (SMILES),Ratio
1,C[C@H]1CCCCN1c1nnc2ccc(O[C@@H]3CC[C@H](NC(=O)Nc4cc(C(C)(C)C)nn4-c4cccc(OCCN(C)C)c4)c4ccccc43)cn12,4.9

# Test system: not listed separately
# Experiment: Drug uptake in Sprague-Dawley rat lung homogenate at 0.03 mg/kg, IT measured after 7 hrs by LC/MS/MS analysis
# Assay type: ADME, organism-based
# Conditions: in vivo, other
row,Structure (SMILES),Drug uptake [%]
1,C[C@H]1CCCCN1c1nnc2ccc(O[C@@H]3CC[C@H](NC(=O)Nc4cc(C(C)(C)C)nn4-c4cccc(OCCN(C)C)c4)c4ccccc43)cn12,8.4

# Test system: not listed separately
# Experiment: Drug uptake in Sprague-Dawley rat lung homogenate at 0.03 mg/kg, IT measured after 24 hrs by LC/MS/MS analysis
# Assay type: ADME, organism-based
# Conditions: in vivo, other
row,Structure (SMILES),Drug uptake [%]
1,C[C@H]1CCCCN1c1nnc2ccc(O[C@@H]3CC[C@H](NC(=O)Nc4cc(C(C)(C)C)nn4-c4cccc(OCCN(C)C)c4)c4ccccc43)cn12,1.6

# Test system: not listed separately
# Experiment: Efflux ratio of permeability in human Caco-2 cells at 10 uM measured after 60 mins by LC-MS/MS analysis
# Assay type: ADME, cell-based
# Conditions: not given
row,Structure (SMILES),"efflux ratio at 1 h, 10 µM"
1,C[C@H]1CCCCN1c1nnc2ccc(O[C@@H]3CC[C@H](NC(=O)Nc4cc(C(C)(C)C)nn4-c4cccc(OCCN(C)C)c4)c4ccccc43)cn12,> 2.5

# Test system: Rattus norvegicus
# Experiment: Antiinflammatory activity against LPS-induced Sprague-Dawley rat inflammatory model assessed as inhibition of neutrophil cells release in BALF at 0.3 mg/kg, IT measured after 12 hrs relative to control
# Assay type: functional
# Conditions: not given
row,Structure (SMILES),inhibition in vivo at 0.3 mg/kg [%]
1,C[C@H]1CCCCN1c1nnc2ccc(O[C@@H]3CC[C@H](NC(=O)Nc4cc(C(C)(C)C)nn4-c4cccc(OCCN(C)C)c4)c4ccccc43)cn12,49

# Test system: not listed separately
# Experiment: Drug concentration in Sprague-Dawley rat lung homogenate at 0.3 mg/kg, IT measured after 24 hrs by LC/MS/MS analysis
# Assay type: ADME, organism-based
# Conditions: read-out: Ct
row,Structure (SMILES),concentration at 24 h [nM]
1,C[C@H]1CCCCN1c1nnc2ccc(O[C@@H]3CC[C@H](NC(=O)Nc4cc(C(C)(C)C)nn4-c4cccc(OCCN(C)C)c4)c4ccccc43)cn12,970
